The results in this text go back to patent publication US8642774B2, “Compounds” (Boehringer Ingelheim International GmbH, priority 2011, dated 2014).

Each structure is given as a SMILES string.

In the assay the target is T1, human recombinant mGluR5 (Homo sapiens, UniProt P41594).
T1 construct: expressed in transfected cells; host or cells: HEK 293 cell line, cultured with tetracycline, hygromycin and geneticin; tetracycline is withdrawn 3-7 days before the assay
T1 sequence (P41594 21-1212): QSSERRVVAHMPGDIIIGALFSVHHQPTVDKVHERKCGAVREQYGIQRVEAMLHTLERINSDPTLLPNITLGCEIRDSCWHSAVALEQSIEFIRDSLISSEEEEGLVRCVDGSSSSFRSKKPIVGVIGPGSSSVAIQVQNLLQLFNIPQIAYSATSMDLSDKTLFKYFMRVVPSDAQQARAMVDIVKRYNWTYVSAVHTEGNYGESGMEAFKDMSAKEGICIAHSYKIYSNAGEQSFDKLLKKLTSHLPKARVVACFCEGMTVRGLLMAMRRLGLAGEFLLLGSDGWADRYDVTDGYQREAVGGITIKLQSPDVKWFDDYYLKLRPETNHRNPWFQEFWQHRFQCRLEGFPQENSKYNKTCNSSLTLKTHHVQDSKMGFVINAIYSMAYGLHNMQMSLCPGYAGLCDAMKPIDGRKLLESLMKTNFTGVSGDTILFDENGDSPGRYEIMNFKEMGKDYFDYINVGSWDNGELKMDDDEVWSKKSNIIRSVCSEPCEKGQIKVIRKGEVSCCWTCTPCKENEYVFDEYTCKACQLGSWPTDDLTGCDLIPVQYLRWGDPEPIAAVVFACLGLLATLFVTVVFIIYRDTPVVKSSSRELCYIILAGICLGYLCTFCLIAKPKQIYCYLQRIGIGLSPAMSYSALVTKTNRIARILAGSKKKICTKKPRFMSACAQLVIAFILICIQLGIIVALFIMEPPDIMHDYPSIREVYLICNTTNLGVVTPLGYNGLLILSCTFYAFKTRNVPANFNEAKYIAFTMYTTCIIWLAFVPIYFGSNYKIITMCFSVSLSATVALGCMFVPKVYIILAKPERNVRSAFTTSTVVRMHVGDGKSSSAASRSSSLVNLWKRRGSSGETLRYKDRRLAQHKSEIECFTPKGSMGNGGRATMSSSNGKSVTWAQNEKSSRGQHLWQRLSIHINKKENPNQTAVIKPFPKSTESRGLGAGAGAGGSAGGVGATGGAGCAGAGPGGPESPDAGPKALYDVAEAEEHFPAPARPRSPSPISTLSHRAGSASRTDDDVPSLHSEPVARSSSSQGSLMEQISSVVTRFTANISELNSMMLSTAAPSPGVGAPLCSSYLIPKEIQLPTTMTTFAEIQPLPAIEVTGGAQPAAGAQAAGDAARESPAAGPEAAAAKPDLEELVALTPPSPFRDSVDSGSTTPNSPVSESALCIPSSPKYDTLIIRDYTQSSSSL
Put plainly: positive modulation of mGluR5, calcium based FLIPR assay. The format is cell-based. The settings on record: EC50 of the modulation; HEK 293 cell line expressing human recombinant mGluR5; peak height of Ca fluorescence signal after glutamate at approx. 5% basal stimulation; read-out: EC50. The essentials: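 HEK 293 cells expressing human recombinant mGluR5, tetracycline-free before assay, loaded with Calcium-4 dye in Ringer solution pH 7.4. Compounds (1% DMSO final) added for 5 min, then glutamate at about 5% of maximal effect; FLIPR peak Ca signal scaled between 1% DMSO (100%) and 10 μM CDPPB (200%) controls, EC50 by nonlinear regression.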
As for `CCc1nc(-c2ccc(OC(F)F)cc2)nn1CC(=O)N1CCc2nc(C)sc2CC1` [Example 7.03.126], the EC50 is 201 nM.
As for `Cc1nc2c(s1)CCN(C(=O)Cn1nc(-c3ccc(OC(F)F)cc3)nc1-c1ccccc1)CC2` [Example 7.03.127], the figure is 40 nM; as for `Cc1nc2c(s1)CN(C(=O)Cn1nc(-c3ccc(OC(F)F)cc3)nc1-c1ccccc1)C2` [Example 7.03.128], 85 nM; as for `Cc1nc2c(o1)CN(C(=O)Cn1nc(-c3ccc(OC(F)F)cc3)nc1-c1ccccc1)C2` [Example 7.03.129], 27 nM.
For `CCCc1nc(-c2ccc(OC(F)F)cc2)nn1CC(=O)N1CCN(c2noc(C)n2)CC1` [Example 7.03.130], the EC50 is 481 nM.
As for `CCCc1nc(-c2ccc(OC(F)F)cc2)nn1CC(=O)N1CCc2nc(C)sc2CC1` [Example 7.03.131], the figure is 316 nM.
Turning to `COc1ccc(-c2nc(-c3ccccc3)n(CC(=O)N3Cc4nc(C)oc4C3)n2)cc1` [Example 7.03.132], the EC50 is 95 nM.
As for `COc1ccc(-c2nc(-c3ccc(OC)cc3)n(CC(=O)N3Cc4nc(C)oc4C3)n2)cc1` [Example 7.03.133], the figure is 104 nM; as for `Cc1nnc(N2CCN(C(=O)Cn3nc(-c4ccc(OC(F)F)cc4)nc3-c3ccccc3)CC2)o1` [Example 7.03.134], 129 nM.
`Cc1nc(N2CCN(C(=O)Cn3nc(-c4ccc(OC(F)F)cc4)nc3-c3ccccc3)CC2)no1` [Example 7.03.135]: the EC50 stood at 19 nM.
As to `O=C(Cn1nc(-c2ccc(F)cc2)nc1-c1ccc(F)cc1)N1CCN(c2nccc3sccc23)CC1` [Example 07.03.136.], the EC50 stood at 498 nM.
Take `O=C(Cn1nc(-c2ccc(F)cc2)nc1-c1ccc(F)cc1)N1CCN(c2nccc3occc23)CC1` [Example 07.03.137.]: the EC50 was 339 nM.
The value for `O=C(Cn1nc(-c2ccc(F)cc2)nc1-c1ccc(F)cc1)N1CCc2nc(N3CCCC3)sc2CC1` [Example 7.04.01., 2-[3,5-bis-(4-Fluoro-phenyl)-(1,2,4)triazol-1-yl)-1-(2-pyrrolidin-1-yl-4,5,7,8-tetrahydro-thiazolo[4,5-d]azepin-6-yl)-ethanone] was 678 nM; that for `CNc1nc2c(s1)CCN(C(=O)Cn1nc(-c3ccc(F)cc3)nc1-c1ccc(F)cc1)CC2` [Example 7.04.02.] was 132 nM; that for `CN(C)c1nc2c(s1)CCN(C(=O)Cn1nc(-c3ccc(F)cc3)nc1-c1ccc(F)cc1)CC2` [Example 7.04.03.] was 346 nM.
As for `O=C(Cn1nc(-c2ccc(F)cc2)nc1-c1ccc(F)cc1)N1CCc2nc(N3CCCCC3)sc2CC1` [Example 7.04.04.], the figure is 561 nM; as for `O=C(Cn1nc(-c2ccc(F)cc2)nc1-c1ccc(F)cc1)N1CCc2nc(N3CCOCC3)sc2CC1` [Example 7.04.05.], 1660 nM; as for `O=C(Cn1nc(-c2ccc(F)cc2)nc1-c1ccc(F)cc1)N1CCN(C2=NCCCS2)CC1` [Example 7.05.01., 2-(3,5-bis-(4-Fluoro-phenyl)-(1,2,4)triazol-1-yl]-1-[4-(5,6-dihydro-4H-(1,3)thiazin-2-yl)-piperazin-1-yl]-ethanone], 1710 nM.
For the molecule `O=C(Cn1nc(-c2ccc(F)cc2)nc1-c1ccc(F)cc1)N1CCc2ncsc2CC1` [Example 7.06.01., 2-(3,5-bis-(4-Fluoro-phenyl)-(1,2,4)triazol-1-yl]-1-(4,5,7,8-tetrahydro-thiazolo[4,5-d]azepin-6-yl)-ethanone], the EC50 was 1130 nM.
